Measured values reported in publication PMC7940574 (Angewandte Chemie (International ed. in English), 2021).

Tested on: A549 cells
Experiment: Flow cytometry annexin V / propidium iodide in A549 cells
Type: cell-based, human
Settings: 15 μM gefitinib

Compound: COc1cc2ncnc(Nc3ccc(F)c(Cl)c3)c2cc1OCCCN1CCOCC1 [gefitinib]
- mode of cytotoxicity (annexin V vs propidium iodide): early apoptosis
